Counter-ions that a name gives are not always drawn. Like-named read-outs stand apart in the source and are kept apart here.
Tests used:
PDGFRβ [1] = biological target: T1, PDGFRβ (Homo sapiens (Human), UniProt P09619); test: PDGF-BB induced phosphorylation of PDGFRβ in fibroblasts (MRC5, HTRF); format: cell-based; settings: MRC5 cells, PDGFBB stimulation; read-out: PDGFBB-induced PDGFRβ phosphorylation in MRC5 cells (IC50)
PDGFRβ [2] = biological target: T1, PDGFRβ; test: PDGFRβ enzyme inhibition (ADP-Glo assay); format: biochemical; settings: mean, n = 2 (nintedanib n = 34)
[3] = Pharmacokinetic measurements in rats (i.v., i.t., oral); format: in vivo; settings: rat; for concentration at 0.1 h / concentration at 1.5 h / concentration at 6 h / concentration at 24 h / Kp at 0.1 h / Kp at 1.5 h / Kp at 6 h / Kp at 24 h: male, CD; for concentration at 0.1 h / concentration at 1.5 h / concentration at 6 h / concentration at 24 h: lung; for concentration at 0.1 h: read-out: lung concentration (nM) at time 0.1 h; for concentration at 1.5 h: read-out: lung concentration (nM) at time 1.5 h; for concentration at 6 h: read-out: lung concentration (nM) at time 6 h; for concentration at 24 h: read-out: lung concentration (nM) at time 24 h; for Kp at 0.1 h / Kp at 1.5 h / Kp at 6 h / Kp at 24 h: lung/plasma
MRC5 cells = test: Cell viability assay in MRC5 cells (MTT)
PAMPA permeability assay = format: in vitro ADME; settings: pH 7, PAMPA

T1 sequence (P09619 33-1106): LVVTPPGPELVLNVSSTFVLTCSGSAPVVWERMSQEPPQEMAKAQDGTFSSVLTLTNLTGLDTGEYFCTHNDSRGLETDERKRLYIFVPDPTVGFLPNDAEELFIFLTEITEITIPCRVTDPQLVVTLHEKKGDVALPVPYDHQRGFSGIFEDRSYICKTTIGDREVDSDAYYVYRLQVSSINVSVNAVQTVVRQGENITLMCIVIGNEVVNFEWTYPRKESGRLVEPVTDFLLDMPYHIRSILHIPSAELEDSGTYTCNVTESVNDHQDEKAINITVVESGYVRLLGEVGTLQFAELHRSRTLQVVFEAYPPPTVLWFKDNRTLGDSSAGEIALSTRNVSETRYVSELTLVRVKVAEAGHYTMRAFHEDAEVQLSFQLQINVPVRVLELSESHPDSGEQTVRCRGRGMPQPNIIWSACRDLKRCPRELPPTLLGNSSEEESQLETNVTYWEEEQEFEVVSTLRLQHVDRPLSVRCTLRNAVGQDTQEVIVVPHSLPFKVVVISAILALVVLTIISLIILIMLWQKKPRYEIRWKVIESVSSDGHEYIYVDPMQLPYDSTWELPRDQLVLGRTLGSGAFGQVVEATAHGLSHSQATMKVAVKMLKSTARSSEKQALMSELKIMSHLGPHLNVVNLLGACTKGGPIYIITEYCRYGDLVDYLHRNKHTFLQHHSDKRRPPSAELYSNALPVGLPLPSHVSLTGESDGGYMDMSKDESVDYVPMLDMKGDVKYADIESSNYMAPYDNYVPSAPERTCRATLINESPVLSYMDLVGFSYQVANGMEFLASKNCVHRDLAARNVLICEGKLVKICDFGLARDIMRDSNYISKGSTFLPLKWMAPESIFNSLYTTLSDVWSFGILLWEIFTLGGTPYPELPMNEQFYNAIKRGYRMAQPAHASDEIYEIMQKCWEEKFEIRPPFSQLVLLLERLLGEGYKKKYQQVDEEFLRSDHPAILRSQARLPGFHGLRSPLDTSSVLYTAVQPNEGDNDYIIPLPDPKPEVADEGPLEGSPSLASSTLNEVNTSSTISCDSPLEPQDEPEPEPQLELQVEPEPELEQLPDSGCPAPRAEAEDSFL

Work on `COC(=O)c1cc2c(cc1C)/C(=C(/Nc1ccc(C(=O)NCC3CCN(C)CC3)cc1)c1ccccc1)C(=O)N2` [Example 3, (Z)-Methyl 5-methyl-3-(((4-(((1-methylpiperidin-4-yl)methyl)carbamoyl)phenyl)amino)(phenyl)methylene)-2-oxoindoline-6-carboxylate, formate] yielded an IC50 (PDGFRβ [1]) of 12.7 nM, a Ki (PDGFRβ [2]) of 6.86 nM and a concentration at 0.1 h ([3]; iv) of 761 nM. It also gave a concentration at 1.5 h ([3]; iv) of 700 nM, a concentration at 6 h ([3]; iv) of 321 nM and a concentration at 24 h ([3]; iv) of 135 nM. For the same compound, the concentration at 0.1 h ([3]; other: intra-tracheal) was 2600 nM, the concentration at 1.5 h ([3]; other: intra-tracheal) was 4990 nM and the concentration at 6 h ([3]; other: intra-tracheal) was 4680 nM. The concentration at 24 h ([3]; other: intra-tracheal) was 1860 nM, the Kp at 0.1 h ([3]; iv, read-out: lung/plasma ratio at time 0.1 h) was 38 and the Kp at 1.5 h ([3]; iv, read-out: lung/plasma ratio at time 1.5 h) was 154. For the same compound, the Kp at 6 h ([3]; iv, read-out: lung/plasma ratio at time 6 h) was 120, the Kp at 24 h ([3]; iv, read-out: lung/plasma ratio at time 24 h) was greater than 72 and the Kp at 0.1 h ([3]; other: intra-tracheal, read-out: lung/plasma conc ratio at time 0.1 h) was 100. It also gave a Kp at 1.5 h ([3]; other: intra-tracheal, read-out: lung/plasma conc ratio at time 1.5 h) of 1910, a Kp at 6 h ([3]; other: intra-tracheal, read-out: lung/plasma conc ratio at time 6 h) of 2150 and a Kp at 24 h ([3]; other: intra-tracheal, read-out: lung/plasma conc ratio at time 24 h) greater than 1000. For the same compound, the “Lung conc i.t./i.v. Ratio at time 0.1 h” value ([3]; 0.1 h) was 3, the “Lung conc i.t./i.v. Ratio at time 1.5 h” value ([3]; 1.5 h) was 7 and the “Lung conc i.t./i.v. Ratio at time 6 h” value ([3]; 6 h) was 15. For the same compound, the “Lung conc i.t./i.v. Ratio at time 24 h” value ([3]; 24 h) was 14, the “BAL % administered dose at time 0.1 h” value ([3]; i.t. dose 0.1 (nintedanib 0.42), 0.1 h) was 14% and the “BAL % administered dose at time 1.5 h” value ([3]; i.t. dose 0.1 (nintedanib 0.42), 1.5 h) was 1.2%. For the same compound, the “BAL % administered dose at time 6 h” value ([3]; i.t. dose 0.1 (nintedanib 0.42), 6 h) was 0.7%, the “BAL % administered dose at time 24 h” value ([3]; i.t. dose 0.1 (nintedanib 0.42), 24 h) was 0.3% and the “BAL % administered dose at time 0.1 h” value ([3]; i.v. dose 0.1 (nintedanib 0.42), 0.1 h) was 0.1%. The “BAL % administered dose at time 1.5 h” value ([3]; i.v. dose 0.1 (nintedanib 0.42), 1.5 h) was 0.1%, the “BAL % administered dose at time 6 h” value ([3]; i.v. dose 0.1 (nintedanib 0.42), 6 h) was 0.03% and the “BAL % administered dose at time 24 h” value ([3]; i.v. dose 0.1 (nintedanib 0.42), 24 h) was 0.02%. The “Cell viability at 100 nM (%)” value (MRC5 cells; 100 nM) was 88%, the “Cell viability at 300 nM (%)” value (MRC5 cells; 300 nM) was 86.1% and the “Cell viability at 1000 nM (%)” value (MRC5 cells; 1000 nM) was 79.5%. For the same compound, the recovery at 5 hr, 10 μM (PAMPA permeability assay) was 92.4% and the Papp at 5 h, 10 µM (PAMPA permeability assay; pH 7, 10 μM, 5 hr) was 0.00775 ×10⁻⁶ cm/s.

— patent US10669235B2, “Indole derivatives and their use as protein kinase inhibitors” (RESPIVERT LIMITED, priority 2016, dated 2020)
